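Test compounds were applied to cells in 96-well plates for 48 hours at 5 doses. Abbreviation: GI50, concentration required for 50% inhibition of growth. At the TGI there is no net growth.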
Key:
Test in all cases: NCI anticancer screen, dose series, 48 h
CCRF-CEM leukemia = tested on: CCRF-CEM leukemia
T-47D breast = tested on: T-47D breast
MOLT-4 leukemia = tested on: MOLT-4 leukemia
MDA-MB-231 breast = tested on: MDA-MB-231 breast
HOP-92 NSCLC = tested on: HOP-92 NSCLC
TK-10 renal = tested on: TK-10 renal
A549 NSCLC = tested on: A549 NSCLC
U251 CNS = tested on: U251 CNS
NCI/ADR-RES ovarian = tested on: NCI/ADR-RES ovarian
MCF7 breast = tested on: MCF7 breast
OVCAR-5 ovarian = tested on: OVCAR-5 ovarian
MDA-MB-435 = tested on: MDA-MB-435
OVCAR-4 ovarian = tested on: OVCAR-4 ovarian
CAKI-1 renal = tested on: CAKI-1 renal
COLO 205 colon = tested on: COLO 205 colon
LOX IMVI melanoma = tested on: LOX IMVI melanoma
RXF 393 renal = tested on: RXF 393 renal
SN12C renal = tested on: SN12C renal
SNB-19 CNS = tested on: SNB-19 CNS
SK-MEL-2 melanoma = tested on: SK-MEL-2 melanoma
M14 melanoma = tested on: M14 melanoma
SR leukemia = tested on: SR leukemia
HS 578T breast = tested on: HS 578T breast
SF-295 CNS = tested on: SF-295 CNS
ACHN renal = tested on: ACHN renal
SNB-75 CNS = tested on: SNB-75 CNS
786-0 renal = tested on: 786-0 renal
HCC-2998 colon = tested on: HCC-2998 colon
BT-549 breast = tested on: BT-549 breast
SF-539 CNS = tested on: SF-539 CNS
NCI-H226 lung = tested on: NCI-H226 lung
A498 renal = tested on: A498 renal
HCT-15 colon = tested on: HCT-15 colon
PC-3 prostate = tested on: PC-3 prostate
RPMI-8226 leukemia = tested on: RPMI-8226 leukemia
SK-MEL-28 melanoma = tested on: SK-MEL-28 melanoma
NCI-H23 lung = tested on: NCI-H23 lung
NCI-H460 lung = tested on: NCI-H460 lung
K-562 leukemia = tested on: K-562 leukemia
UACC-62 melanoma = tested on: UACC-62 melanoma
OVCAR-8 ovarian = tested on: OVCAR-8 ovarian
SW-620 colon = tested on: SW-620 colon
MALME-3M melanoma = tested on: MALME-3M melanoma
EKVX NSCLC = tested on: EKVX NSCLC
DU-145 prostate = tested on: DU-145 prostate
HCT-116 colon = tested on: HCT-116 colon
SK-MEL-5 melanoma = tested on: SK-MEL-5 melanoma
OVCAR-3 ovarian = tested on: OVCAR-3 ovarian
KM12 colon = tested on: KM12 colon
SK-OV-3 ovarian = tested on: SK-OV-3 ovarian
UO-31 renal = tested on: UO-31 renal
HT29 colon = tested on: HT29 colon
SF-268 CNS = tested on: SF-268 CNS
NCI-H522 lung = tested on: NCI-H522 lung
IGROV1 ovarian = tested on: IGROV1 ovarian
HOP-62 NSCLC = tested on: HOP-62 NSCLC
UACC-257 melanoma = tested on: UACC-257 melanoma

What does the source list for `Clc1ccc2[nH]cc(-c3nnnn3-c3ccccc3)c2c1`?
GI50 (CCRF-CEM leukemia): 19.3 µM; TGI (CCRF-CEM leukemia): > 100 µM; GI50 (T-47D breast): > 45.3 µM; TGI (T-47D breast): > 100 µM; GI50 (MOLT-4 leukemia): 11 µM; TGI (MOLT-4 leukemia): > 53 µM; GI50 (MDA-MB-231 breast): 33.8 µM; TGI (MDA-MB-231 breast): > 100 µM; GI50 (HOP-92 NSCLC): 27.5 µM; TGI (HOP-92 NSCLC): > 100 µM; GI50 (TK-10 renal): 7.29 µM; TGI (TK-10 renal): > 31.6 µM; GI50 (A549 NSCLC): 20.8 µM; TGI (A549 NSCLC): > 100 µM; GI50 (U251 CNS): 14 µM; TGI (U251 CNS): > 78.9 µM; GI50 (NCI/ADR-RES ovarian): 7.61 µM; TGI (NCI/ADR-RES ovarian): 41.8 µM; GI50 (MCF7 breast): 29.8 µM; TGI (MCF7 breast): > 100 µM; GI50 (OVCAR-5 ovarian): 21.8 µM; TGI (OVCAR-5 ovarian): > 89.8 µM; GI50 (MDA-MB-435): 1.64 µM; TGI (MDA-MB-435): 4.16 µM; GI50 (OVCAR-4 ovarian): > 43.8 µM; TGI (OVCAR-4 ovarian): > 100 µM; TGI (CAKI-1 renal): 1.16 µM; GI50 (COLO 205 colon): 23.1 µM; TGI (COLO 205 colon): > 57.8 µM; GI50 (LOX IMVI melanoma): 10.5 µM; TGI (LOX IMVI melanoma): > 53.5 µM; GI50 (RXF 393 renal): 32.2 µM; TGI (RXF 393 renal): > 100 µM; GI50 (SN12C renal): 32.8 µM; TGI (SN12C renal): > 100 µM; GI50 (SNB-19 CNS): 38.4 µM; TGI (SNB-19 CNS): > 100 µM; GI50 (SK-MEL-2 melanoma): > 64.9 µM; TGI (SK-MEL-2 melanoma): > 100 µM; GI50 (M14 melanoma): 9.74 µM; TGI (M14 melanoma): 41.8 µM; GI50 (SR leukemia): 4.4 µM; TGI (SR leukemia): > 38.9 µM; GI50 (HS 578T breast): 15.4 µM; TGI (HS 578T breast): > 60.8 µM; GI50 (SF-295 CNS): 13.3 µM; TGI (SF-295 CNS): 52.7 µM; GI50 (ACHN renal): 24.9 µM; TGI (ACHN renal): > 100 µM; GI50 (SNB-75 CNS): 6.25 µM; TGI (SNB-75 CNS): 30.8 µM; GI50 (786-0 renal): 29.6 µM; TGI (786-0 renal): > 100 µM; GI50 (HCC-2998 colon): 5.32 µM; TGI (HCC-2998 colon): 20.1 µM; GI50 (BT-549 breast): 22.2 µM; TGI (BT-549 breast): 68.9 µM; GI50 (SF-539 CNS): 16.5 µM; TGI (SF-539 CNS): 39 µM; GI50 (NCI-H226 lung): 74 µM; TGI (NCI-H226 lung): > 100 µM; GI50 (A498 renal): 8.39 µM; TGI (A498 renal): 36.8 µM; GI50 (HCT-15 colon): 12 µM; TGI (HCT-15 colon): > 100 µM; GI50 (PC-3 prostate): 18.6 µM; TGI (PC-3 prostate): > 59.5 µM; GI50 (RPMI-8226 leukemia): 14.5 µM; TGI (RPMI-8226 leukemia): 43.3 µM; GI50 (SK-MEL-28 melanoma): 14.3 µM; TGI (SK-MEL-28 melanoma): > 100 µM; GI50 (NCI-H23 lung): 8.11 µM; TGI (NCI-H23 lung): 49.9 µM; GI50 (NCI-H460 lung): 20.3 µM; TGI (NCI-H460 lung): > 100 µM; GI50 (K-562 leukemia): 8.58 µM; TGI (K-562 leukemia): > 67.3 µM; GI50 (UACC-62 melanoma): 11.2 µM; TGI (UACC-62 melanoma): > 100 µM; GI50 (OVCAR-8 ovarian): 29.5 µM; TGI (OVCAR-8 ovarian): > 93.3 µM; GI50 (SW-620 colon): 14.9 µM; TGI (SW-620 colon): > 100 µM; GI50 (MALME-3M melanoma): 13.5 µM; TGI (MALME-3M melanoma): > 56.5 µM; GI50 (EKVX NSCLC): 28.3 µM; TGI (EKVX NSCLC): > 100 µM; GI50 (DU-145 prostate): 24.5 µM; TGI (DU-145 prostate): > 76.6 µM; GI50 (HCT-116 colon): 18.3 µM; TGI (HCT-116 colon): 57.5 µM; GI50 (SK-MEL-5 melanoma): 9.97 µM; TGI (SK-MEL-5 melanoma): 28.8 µM; GI50 (OVCAR-3 ovarian): 6.66 µM; TGI (OVCAR-3 ovarian): > 42.5 µM; GI50 (KM12 colon): 2.99 µM; TGI (KM12 colon): 19 µM; GI50 (SK-OV-3 ovarian): > 44.3 µM; TGI (SK-OV-3 ovarian): > 75.3 µM; GI50 (UO-31 renal): 26.9 µM; TGI (UO-31 renal): > 100 µM; GI50 (HT29 colon): 11.9 µM; TGI (HT29 colon): > 70.9 µM; GI50 (SF-268 CNS): 53.1 µM; TGI (SF-268 CNS): > 100 µM; GI50 (NCI-H522 lung): 18.7 µM; TGI (NCI-H522 lung): > 92.5 µM; GI50 (IGROV1 ovarian): 29.4 µM; TGI (IGROV1 ovarian): > 77 µM; GI50 (HOP-62 NSCLC): 28 µM; TGI (HOP-62 NSCLC): > 100 µM; GI50 (UACC-257 melanoma): 24.9 µM; TGI (UACC-257 melanoma): 71 µM
